Laboratory results reported in patent publication US10787430B2, “Hemoglobin modifier compounds and uses thereof” (FronThera U.S. Pharmaceuticals LLC, priority 2016, dated 2020).

What was measured:
[1] = molecular target: T1, hemoglobin (20% hct blood) (Homo sapiens, UniProt P68871+P69905); assay: Dose-dependent whole blood OEC studies; type: cell-based; settings: 37° C., 1 hr; for delta p50 0.2 mM: 0.2 mM compound; for delta p50 0.5 mM: 0.5 mM compound
T1 construct: Normal whole blood was collected from adult healthy donors; from tissue; host or cells: normal human whole blood (red blood cells), adult healthy donors
T1 sequence (P69905 2-142 limits assumed): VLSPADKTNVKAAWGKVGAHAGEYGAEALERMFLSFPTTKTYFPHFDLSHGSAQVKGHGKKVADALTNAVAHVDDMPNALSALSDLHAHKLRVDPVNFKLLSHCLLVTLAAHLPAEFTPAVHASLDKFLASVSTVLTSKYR
T1 sequence (P68871 2-147 limits assumed): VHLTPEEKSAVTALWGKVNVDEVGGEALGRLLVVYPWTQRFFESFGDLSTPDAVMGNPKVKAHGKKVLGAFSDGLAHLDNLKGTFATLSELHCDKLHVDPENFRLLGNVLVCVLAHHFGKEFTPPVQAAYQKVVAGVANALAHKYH
Protocol: Materials: Normal whole blood was collected from adult healthy donors at the Virginia Commonwealth University after informed consent. The use of these human samples is in accordance with regulations of the IRB for Protection of Human Subjects. Compounds (50 mM-100 mM concentration in DMSO) were stored at 15° C. or room temperature until use.
To 2 ml 20% hct blood, 0.2 or 0.5 or 1 mM compound was added and kept shaking at 37° C. for 1 hr. OEC analysis was performed as described above to determine partial pressure of oxygen (pO2) and Hb oxygen saturation values (sO2). A control without compound but containing equivalent amount of DMSO was performed (1%). GBT440 was used as a positive control. Table 2 below lists the delta p50% values.

[2] = system: sickled HbSS whole blood (RBC sickling); assay: Anti-sickling assay in HbSS sickled blood under hypoxic induction; type: cell-based, human; settings: HbSS whole blood 26% Hct, 20 mins hypoxic induction; 0.2 mM compounds (FIG. 2)
Protocol: Materials: • Blood collected after informed consent from sickle cell individuals. • HBS buffer: 10 mM HEPES, 145 mM NaCl, pH 7.4 • Hemox buffer: Buffer provided for the hemox analyzer • Control Compound stock solution in DMSO (50 mM) stored at RT • Control Compound work solution (CWS): 10 μl of DMSO was added by Hamilton to 90 μl of HBS buffer (20 mM Hepes, 145 mM NaCl, pH 7.4) to create a working solution with a final concentration of 5 mM drug and 10% DMSO). • Compound stock solution in DMSO (50 mM) stored at RT • Compound work solution (WS): 10 μl of DMSO was added by Hamilton to 90 μl of HBS buffer (20 mM Hepes, 145 mM NaCl, pH 7.4) to create a working solution with a final concentration of 5 mM drug and 10% DMSO). • DMSO buffer: 10% DMSO (DB), same as WS but without drug. This will be used to maintain DMSO the same for different drug incubations. Test Protocol:
Collect blood from Clinic: Blood were collected after informed consent according to an approved IRB protocol. • Run Advia 120 analysis on SCD blood, to determine Hct. • Dilute blood to 20% Hct with HBS to total volume of 3 ml. • This cell suspension (CS) will be used for all experiments.
Incubation • 1. 200 μl CS • 2. 200 μl CS+20 μl CWS (5 mM diluted 10 times=0.5 mM control final)−(1% DMSO) • 3. 200 μl CS+20 μl WS (5 mM diluted 10 times=0.5 mM control final)−(1% DMSO) • 4. 200 μl CS+8 μl WS (0.2 mM drug final)+DB−(1% DMSO) • Incubate 30 minutes at 37° C.
50 μl into 1 ml HBS+2% BSA buffer. Eight time points (0-20 minutes) at 2% oxygen, 10,000 events each)
The sickling runs provide sets samples that need to be run on the AMNIS image flow and are subsequently analyzed with pixel analysis software.
Drug was provided at 50 mM concentration in DMSO, and stored at room temperature until use. 10 μl of DMSO was added by Hamilton to 90 μl of HBS buffer (20 mM Hepes, 145 mM NaCl, pH 7.4) to create a working solution with a final concentration of 5 mM drug and 10% DMSO). Blood was collected from a sickle cell patient in EDTA anticoagulant. To 200 μl of whole blood, a 20 or 8 μl of working solution was added resulting in a final drug concentration of 0.5 mM or 0.2 mM respectively. The DMSO concentration in both was corrected to 1%. The final hematocrit was measured by ADVIA analysis to be 26%. […] The delta hemox (%) comparing Example 29e with GBT440 is shown in FIG. 1A (0.2 mM) and FIG. 1B (0.5 mM).
Anti-sickling is shown in FIG. 2 with M: maximum percentage of sickled cells during 20 mins of hypoxic induction, T: time needed to reach 50% of M, and Z: baseline percentage of sickled cells prior to hypoxic induction.

[3] = molecular target: T2, CYP1A2 (Homo sapiens, UniProt P05177); assay: CYP inhibition evaluation in human liver microsomes; type: in vitro ADME
T2 construct: from tissue; host or cells: human liver microsomes
T2 sequence (P05177 1-516): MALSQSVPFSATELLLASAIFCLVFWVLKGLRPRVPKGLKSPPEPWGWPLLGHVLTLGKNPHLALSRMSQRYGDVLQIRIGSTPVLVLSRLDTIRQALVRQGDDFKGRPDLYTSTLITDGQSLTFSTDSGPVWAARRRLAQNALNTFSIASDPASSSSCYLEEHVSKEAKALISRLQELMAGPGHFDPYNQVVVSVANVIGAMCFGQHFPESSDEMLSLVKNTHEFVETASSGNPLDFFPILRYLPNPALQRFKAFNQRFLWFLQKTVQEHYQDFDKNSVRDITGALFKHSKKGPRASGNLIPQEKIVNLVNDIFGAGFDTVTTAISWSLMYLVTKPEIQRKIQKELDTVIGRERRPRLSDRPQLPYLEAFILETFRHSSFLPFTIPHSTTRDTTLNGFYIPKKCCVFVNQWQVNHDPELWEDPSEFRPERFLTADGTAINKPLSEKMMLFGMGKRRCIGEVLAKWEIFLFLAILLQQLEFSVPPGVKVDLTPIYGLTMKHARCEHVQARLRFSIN
Source text: (§1) Example A5: CYP Inhibition Evaluation in Human Liver Microsomes

[4] = molecular target: T3, CYP2C19 (Homo sapiens, UniProt P33261); assay: as above; type: in vitro ADME
T3 construct: from tissue; host or cells: human liver microsomes
T3 sequence (P33261 whole entry): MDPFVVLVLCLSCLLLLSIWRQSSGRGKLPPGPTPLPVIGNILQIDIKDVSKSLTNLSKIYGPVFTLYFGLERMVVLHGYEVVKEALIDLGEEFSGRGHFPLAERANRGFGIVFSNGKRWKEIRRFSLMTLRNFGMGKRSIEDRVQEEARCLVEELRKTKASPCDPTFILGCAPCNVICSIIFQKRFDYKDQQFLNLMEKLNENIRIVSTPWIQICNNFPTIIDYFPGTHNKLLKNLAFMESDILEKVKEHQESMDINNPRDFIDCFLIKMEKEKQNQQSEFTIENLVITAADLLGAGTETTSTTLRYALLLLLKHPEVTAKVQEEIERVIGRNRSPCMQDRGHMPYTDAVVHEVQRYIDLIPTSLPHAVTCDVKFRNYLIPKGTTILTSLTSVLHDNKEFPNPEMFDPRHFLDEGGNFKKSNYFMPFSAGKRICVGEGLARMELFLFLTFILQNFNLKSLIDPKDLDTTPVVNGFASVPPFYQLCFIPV
Source text: as §1

[5] = molecular target: T4, CYP2C8 (Homo sapiens, UniProt P10632); assay: as above; type: in vitro ADME
T4 construct: from tissue; host or cells: human liver microsomes
T4 sequence (P10632 1-490): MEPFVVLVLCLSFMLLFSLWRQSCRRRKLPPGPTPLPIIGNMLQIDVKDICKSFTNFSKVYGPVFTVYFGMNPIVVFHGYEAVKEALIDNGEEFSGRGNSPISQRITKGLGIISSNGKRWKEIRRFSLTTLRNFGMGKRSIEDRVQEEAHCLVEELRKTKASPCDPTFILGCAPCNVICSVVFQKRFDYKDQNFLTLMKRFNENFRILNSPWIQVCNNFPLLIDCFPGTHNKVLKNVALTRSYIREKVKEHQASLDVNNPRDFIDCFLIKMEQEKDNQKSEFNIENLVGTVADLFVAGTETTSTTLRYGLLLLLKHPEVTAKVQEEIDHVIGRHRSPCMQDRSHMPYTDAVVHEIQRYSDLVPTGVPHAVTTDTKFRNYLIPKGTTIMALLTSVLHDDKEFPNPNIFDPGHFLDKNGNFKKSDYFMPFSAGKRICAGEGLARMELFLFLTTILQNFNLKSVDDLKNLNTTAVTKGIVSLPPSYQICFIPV
Source text: as §1

[6] = molecular target: T5, CYP2C9 (Homo sapiens, UniProt P11712); assay: as above; type: in vitro ADME
T5 construct: from tissue; host or cells: human liver microsomes
T5 sequence (P11712 whole entry): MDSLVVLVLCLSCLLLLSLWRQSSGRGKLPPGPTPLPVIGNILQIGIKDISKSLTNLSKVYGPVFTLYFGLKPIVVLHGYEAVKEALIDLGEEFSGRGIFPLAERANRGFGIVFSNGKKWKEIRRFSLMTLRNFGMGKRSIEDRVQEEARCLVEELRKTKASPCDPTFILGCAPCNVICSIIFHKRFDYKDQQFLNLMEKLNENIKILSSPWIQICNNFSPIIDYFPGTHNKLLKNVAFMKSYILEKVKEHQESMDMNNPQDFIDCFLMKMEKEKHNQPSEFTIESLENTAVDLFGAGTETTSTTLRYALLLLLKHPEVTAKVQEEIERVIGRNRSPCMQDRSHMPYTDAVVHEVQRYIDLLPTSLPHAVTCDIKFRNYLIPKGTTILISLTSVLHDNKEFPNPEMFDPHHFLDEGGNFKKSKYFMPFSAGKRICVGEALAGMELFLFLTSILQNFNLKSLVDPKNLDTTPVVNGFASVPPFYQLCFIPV
Source text: as §1

[7] = molecular target: T6, CYP2D6 (Homo sapiens, UniProt P10635); assay: as above; type: in vitro ADME
T6 construct: from tissue; host or cells: human liver microsomes
T6 sequence (P10635 whole entry): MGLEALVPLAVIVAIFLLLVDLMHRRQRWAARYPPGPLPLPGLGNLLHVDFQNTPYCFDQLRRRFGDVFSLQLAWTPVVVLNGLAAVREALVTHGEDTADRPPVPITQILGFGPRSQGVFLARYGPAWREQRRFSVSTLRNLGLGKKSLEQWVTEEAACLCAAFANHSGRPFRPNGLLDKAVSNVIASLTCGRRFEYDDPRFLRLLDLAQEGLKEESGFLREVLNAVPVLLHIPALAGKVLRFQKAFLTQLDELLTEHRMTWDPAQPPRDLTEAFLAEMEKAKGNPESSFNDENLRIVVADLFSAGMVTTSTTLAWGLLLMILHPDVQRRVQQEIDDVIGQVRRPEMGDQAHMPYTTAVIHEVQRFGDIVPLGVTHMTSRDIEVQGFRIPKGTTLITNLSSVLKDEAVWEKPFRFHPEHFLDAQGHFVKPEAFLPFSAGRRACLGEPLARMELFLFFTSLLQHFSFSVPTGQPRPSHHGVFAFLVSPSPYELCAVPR
Source text: as §1

[8] = molecular target: T7, CYP3A4-M (Homo sapiens, UniProt P08684); assay: as above; type: in vitro ADME
T7 construct: from tissue; host or cells: human liver microsomes
T7 sequence (P08684 whole entry): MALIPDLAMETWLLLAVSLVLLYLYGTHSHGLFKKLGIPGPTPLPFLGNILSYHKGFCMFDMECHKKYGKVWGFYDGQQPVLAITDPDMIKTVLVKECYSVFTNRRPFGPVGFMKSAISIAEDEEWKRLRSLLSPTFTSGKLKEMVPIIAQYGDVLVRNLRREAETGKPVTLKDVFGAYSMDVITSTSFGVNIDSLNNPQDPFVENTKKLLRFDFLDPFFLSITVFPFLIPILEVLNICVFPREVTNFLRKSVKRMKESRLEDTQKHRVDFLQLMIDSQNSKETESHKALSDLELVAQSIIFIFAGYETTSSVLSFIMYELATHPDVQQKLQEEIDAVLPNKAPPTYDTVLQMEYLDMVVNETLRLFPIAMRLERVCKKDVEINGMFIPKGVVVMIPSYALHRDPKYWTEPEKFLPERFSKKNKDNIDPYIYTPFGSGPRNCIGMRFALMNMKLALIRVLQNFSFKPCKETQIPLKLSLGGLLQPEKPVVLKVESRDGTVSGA
Source text: as §1

[9] = Microsome stability evaluation in rat liver microsomes; type: in vitro ADME; settings: read-out: Rat microsome, t½
Source text: (§2) Example A6: Microsome Stability Evaluation in Human and Rat Liver Microsomes

[10] = Microsome stability evaluation in human liver microsomes; type: in vitro ADME; settings: read-out: Human microsome, t½
Source text: as §2

delta p50 0.2 mM [1] [%]	delta p50 0.5 mM [1] [%]	IC50 [3] [µM]	IC50 [4] [µM]	IC50 [5] [µM]	IC50 [6] [µM]	IC50 [7] [µM]	IC50 [8] [µM]	half-life [9] [min]	half-life [10] [min]	Compound	Reduction in % sickled cells compared to untreated [2] [%]
−18.8	−56.6	22	6.1	3.7	11	> 30	10	19	24	[2H]C([2H])(Oc1cc(F)cc(O)c1C=O)c1cccnc1-c1ccnn1C(C)C [Example 27b, 4-fluoro-2-hydroxy-6-((2-(1-isopropyl-1H-pyrazol-5-yl)pyridin-3-yl)methoxy-d2)benzaldehyde]	−30.8
−24.9	−66.1	> 50	19.5	> 50	36.5	> 50	> 50	11	11	[2H]C([2H])(Oc1cccc(O)c1C=O)c1cccnc1-n1ccnc1C(C)C [Example 29e, 2-hydroxy-6-((2-(2-isopropyl-1H-imidazol-1-yl)pyridin-3-yl)methoxy-d2)benzaldehyde]	−27.1
−14.2	−35.1	17.6	7	12.4	28.1	> 30	> 30	22	24	CC(C)n1nccc1-c1ncccc1COc1cccc(O)c1C=O [GBT440, reference compound]	−22.4
